Measurements reported in ChEMBL document CHEMBL3779788, “Facile synthesis of 1,3-thiazolidin-4-ones as antitubercular agents” (Bioorg Med Chem Lett, 2016).
≈ marks a conversion by molar mass, not a printed value.

Key:
Staphylococcus aureus = test: Antibacterial activity against Staphylococcus aureus after 18 hrs by broth dilution method; assay type: functional, organism-based
Bacillus subtilis = test: Antibacterial activity against Bacillus subtilis after 18 hrs by broth dilution method; assay type: functional, organism-based
Escherichia coli = test: Antibacterial activity against Escherichia coli after 18 hrs by broth dilution method; assay type: functional, organism-based
Pseudomonas = test: Antibacterial activity against Pseudomonas after 18 hrs by broth dilution method; assay type: functional, organism-based
[1] = Cytotoxicity against human HCT116 cells at 30 ug/mL by MTT assay; assay type: cell-based, HCT-116; details: read-out: INH
[2] = Cytotoxicity against human MCF7 cells at 10 ug/mL by MTT assay; assay type: cell-based; details: read-out: INH
[3] = test system: Mycobacterium tuberculosis; test: Antitubercular activity against dormant Mycobacterium tuberculosis H37Ra assessed as growth inhibition at 10 ug/mL by XTT reduction menadione assay; assay type: functional; details: read-out: GI
[4] = Cytotoxicity against human MCF7 cells at 30 ug/mL by MTT assay; assay type: cell-based; details: read-out: INH
[5] = Cytotoxicity against human HCT116 cells at 3 ug/mL by MTT assay; assay type: cell-based, HCT-116; details: read-out: INH
[6] = test system: Mycobacterium bovis BCG str. ATCC 35743; test: Antitubercular activity against dormant Mycobacterium bovis BCG ATCC 35743 assessed as growth inhibition at 10 ug/mL by NR assay; assay type: functional
[7] = test system: Mycobacterium bovis BCG str. ATCC 35743; test: (§1) Antitubercular activity against dormant Mycobacterium bovis BCG ATCC 35743 by NR assay; assay type: functional
[8] = as §1; assay type: functional, Mycobacterium bovis BCG str. ATCC 35743
[9] = Cytotoxicity against human HCT116 cells at 10 ug/mL by MTT assay; assay type: cell-based, HCT-116; details: read-out: INH
[10] = test system: Mycobacterium tuberculosis; test: Antitubercular activity against dormant Mycobacterium tuberculosis H37Ra assessed as growth inhibition at 3 ug/mL by XTT reduction menadione assay; assay type: functional; details: read-out: GI
[11] = test system: Mycobacterium bovis BCG str. ATCC 35743; test: Antitubercular activity against dormant Mycobacterium bovis BCG ATCC 35743 assessed as growth inhibition at 3 ug/mL by NR assay; assay type: functional
[12] = test system: Mycobacterium bovis BCG str. ATCC 35743; test: Antitubercular activity against dormant Mycobacterium bovis BCG ATCC 35743 assessed as growth inhibition at 30 ug/mL by NR assay; assay type: functional
[13] = Cytotoxicity against human A549 cells at 3 ug/mL by MTT assay; assay type: cell-based; details: read-out: INH
[14] = Cytotoxicity against human A549 cells at 10 ug/mL by MTT assay; assay type: cell-based; details: read-out: INH
[15] = Cytotoxicity against human MCF7 cells at 3 ug/mL by MTT assay; assay type: cell-based; details: read-out: INH
[16] = test system: Mycobacterium tuberculosis; test: Antitubercular activity against dormant Mycobacterium tuberculosis H37Ra assessed as growth inhibition at 30 ug/mL by XTT reduction menadione assay; assay type: functional; details: read-out: GI
[17] = test system: Mycobacterium tuberculosis; test: Antitubercular activity against dormant Mycobacterium tuberculosis H37Ra by XTT reduction menadione assay; assay type: functional, organism-based
[18] = Cytotoxicity against human A549 cells at 30 ug/mL by MTT assay; assay type: cell-based; details: read-out: INH

| Structure (SMILES) | cytotoxicity at 30 ug/mL [1] [%] | cytotoxicity at 10 ug/mL [2] [%] | inhibition of growth at 10 µg/mL [3] [%] | cytotoxicity at 30 ug/mL [4] [%] | cytotoxicity at 3 ug/mL [5] [%] | growth inhibition (GI) [6] [%] | IC90 [7] [µg/mL] | IC50 [8] [µg/mL] | cytotoxicity at 10 ug/mL [9] [%] | inhibition of growth at 3 µg/mL [10] [%] | growth inhibition (GI) [11] [%] | growth inhibition (GI) [12] [%] | cytotoxicity at 3 ug/mL [13] [%] | cytotoxicity at 10 ug/mL [14] [%] | cytotoxicity at 3 ug/mL [15] [%] | inhibition of growth at 30 µg/mL [16] [%] | IC50 [17] [µg/mL] | IC90 [17] [µg/mL] | cytotoxicity at 30 ug/mL [18] [%] | further results |
| --- | --- | --- | --- | --- | --- | --- | --- | --- | --- | --- | --- | --- | --- | --- | --- | --- | --- | --- | --- | --- |
| NC[C@H]1O[C@H](O[C@H]2[C@H](O)[C@@H](O[C@H]3O[C@H](CO)[C@@H](O)[C@H](N)[C@H]3O)[C@H](N)C[C@@H]2N)[C@H](O)[C@@H](O)[C@@H]1O [KANAMYCIN] |  |  |  |  |  |  |  |  |  |  |  |  |  |  |  |  |  |  |  | IC50 (Staphylococcus aureus): > 30 µg/mL; MIC (Staphylococcus aureus): 16 µg/mL (≈ 33 µM); IC50 (Bacillus subtilis): 1.35 µg/mL (≈ 2.79 µM); MIC (Bacillus subtilis): 0.25 µg/mL (≈ 0.516 µM); IC50 (Escherichia coli): 1.62 µg/mL (≈ 3.34 µM); MIC (Escherichia coli): 0.67 µg/mL (≈ 1.38 µM); IC50 (Pseudomonas): 0.49 µg/mL (≈ 1.01 µM); MIC (Pseudomonas): 0.012 µg/mL (≈ 0.0248 µM) |
| O=C1CSC(c2ccccc2)N1c1ccc(Br)cc1 (centres undefined) | 22 | 9.4 | -27.5 | 23.8 | -7.3 | -2.7 | > 30 | > 30 | 8.2 | -6.9 | -14 | -35.7 | 0 | 0 | -2.6 | -0.7 | > 30 | > 30 | 0 |  |
| O=C1CSC(c2ccc(Cl)cc2)N1c1ccc(Cl)cc1 (centres undefined) | 15.9 | 16.6 | 24.1 | 14.8 | -8.1 | 0 | > 30 | > 30 | 1.3 | 11.8 | -20.2 | -0.8 | 0 | 0 | 14.5 | -19.8 | > 30 | > 30 | 0 |  |
| Cc1ccc(N2C(=O)CSC2c2ccc(Cl)cc2)cc1 (centres undefined) | 28.8 | 9.6 | 38.1 | 11.3 | -8.6 | 29.2 | > 30 | > 30 | 7.2 | 34 | -6.6 | 5.3 | 1.3 | 0 | -0.9 | 5.2 | > 30 | > 30 | 0 |  |
| Cc1ccc(N2C(=O)CSC2c2ccc([N+](=O)[O-])cc2)cc1 (centres undefined) | -12.4 | 38.8 | -5.4 | 45.6 | -16.1 | -6.1 | > 30 | > 30 | -14.6 | 21.2 | -2 | -7.1 | -11.3 | 0 | 34.6 | 14.4 | > 30 | > 30 | -10.3 |  |
| COc1ccc(C2SCC(=O)N2c2ccc(Cl)cc2)cc1 (centres undefined) | 12 | 0 | 18 | 38.6 | -2.9 | -0.7 | > 30 | > 30 | -2.3 | 37.6 | 5.3 | 1.6 | -4 | 0 | 0 | 9.5 | > 30 | > 30 | 0 |  |
| Cc1ccc(C2SCC(=O)N2c2ccc(C)cc2)cc1 (centres undefined) | 45 | 16.4 | -26.4 | 19.6 | 9.7 | -1.2 | > 30 | > 30 | 16.7 | -18.5 | -12.5 | -1.9 | 8.6 | 0 | -9.2 | -27.4 | > 30 | > 30 | -13.4 |  |
| O=C1CSC(c2ccc(O)cc2)N1c1ccc(Cl)cc1 (centres undefined) | 20.1 | 32.2 | 10.3 | 43.4 | 4.3 | -15.5 | > 30 | > 30 | 10.4 | 29.8 | 6 | -2.2 | 0 | 0 | 24.9 | 16.3 | > 30 | > 30 | 0 |  |
| O=C1CSC(c2ccc(F)cc2)N1c1ccc(Cl)cc1 (centres undefined) | 50.4 | 38.1 | -14.6 | 43.7 | 9.4 | -3.8 | > 30 | > 30 | 18.6 | 8.8 | -3.2 | -1.3 | -7 | 0 | 32.2 | 30.2 | > 30 | > 30 | 4.9 |  |
| CO[C@H]1/C=C/O[C@@]2(C)Oc3c(C)c(O)c4c(O)c(c(/C=N/N5CCN(C)CC5)c(O)c4c3C2=O)NC(=O)/C(C)=C\C=C\[C@H](C)[C@H](O)[C@@H](C)[C@@H](O)[C@@H](C)[C@H](OC(C)=O)[C@@H]1C [RIFAMPIN] |  |  |  |  |  |  | 0.041 (≈ 0.0498 µM) | 0.0016 (≈ 0.00194 µM) |  |  |  |  |  |  |  |  |  | 0.043 (≈ 0.0523 µM) |  |  |
| CC1(C)S[C@@H]2[C@H](NC(=O)[C@H](N)c3ccccc3)C(=O)N2[C@H]1C(=O)O [AMPICILLIN] |  |  |  |  |  |  |  |  |  |  |  |  |  |  |  |  |  |  |  | IC50 (Staphylococcus aureus): 1 µg/mL (≈ 2.86 µM); MIC (Staphylococcus aureus): 0.12 µg/mL (≈ 0.343 µM); IC50 (Bacillus subtilis): 10.3 µg/mL (≈ 29.5 µM); MIC (Bacillus subtilis): 5.89 µg/mL (≈ 16.9 µM); IC50 (Escherichia coli): 1.46 µg/mL (≈ 4.18 µM); MIC (Escherichia coli): 0.41 µg/mL (≈ 1.17 µM); IC50 (Pseudomonas): 4.36 µg/mL (≈ 12.5 µM); MIC (Pseudomonas): 2.83 µg/mL (≈ 8.1 µM) |
| NNC(=O)c1ccncc1 [ISONIAZID] |  |  |  |  |  |  | 0.045 (≈ 0.328 µM) | 0.0023 (≈ 0.0168 µM) |  |  |  |  |  |  |  |  |  | 0.075 (≈ 0.547 µM) |  |  |
